{"source": "patent US5750553A", "about": "“Optionally substituted phenylimidazolidines, their preparation process and intermediates, their use as medicaments and the pharmaceutical compositions containing them” (Roussel Uclaf, priority 1994, dated 1998)", "key": {"[1]": {"system": "renal ornithine decarboxylase (ODC)", "test": "Determination of the androgen or anti-androgen activity using dosage of ornithine decarboxylase (ODC) in castrated mice receiving testosterone propionate", "assay_type": "in vivo, male SWISS mice", "settings": "percutaneous route, 1.5 mg/kg in 10 μl; testosterone propionate 3 mg/kg sub-cutaneous; kidneys 20 hours after treatment", "protocol": "2) Determination of the androgen or anti-androgen activity of the products of the invention using dosage of ornithine decarboxylase (ODC).\n20 hours after the treatments, the animals are sacrificed, the kidneys are removed, then homogenized at 0° C., using a teflon glass grinder in 10 volumes of Tris-HCl 50 mM (pH 7.4) buffer containing 250 μM of pyridoxal phosphate, 0.1 mM EDTA, and 5 mM of dithiothreitol. The homogenate is then centrifuged at 209,000 g for 30 minutes.\nAt 37° C., renal ornithine decarboxylase converts an isotopic mixture of unlabelled ornithine and tritiated ornithine into unlabelled putrescine and tritiated putrescine.\nThe putrescine is then collected on selective ion-exchange papers. After drying, the excess unconverted tritiated and unlabelled ornithine is eliminated by washing 3 times with 0.1M of ammonium hydroxide. The papers are dried, then the radioactivity is counted after addition of scintillating Aqualite.\nThe results are expressed as fmoles (10^-15 M) of tritiated putrescine formed/hour/mg of proteins.\nTest: the products are administered by percutaneous route at 1.5 mg/kg in a volume of 10 μl."}, "androgen receptor": {"biological_target": "T1, androgen receptor (Rattus norvegicus, UniProt P15207)", "T1 construct": "the prostates are removed, weighed and homogenized at 0° C; from tissue; host or cells: prostate cytosol (209,000 g supernatant) of castrated male Sprague Dawley rats", "T1 sequence (P15207 1-902)": "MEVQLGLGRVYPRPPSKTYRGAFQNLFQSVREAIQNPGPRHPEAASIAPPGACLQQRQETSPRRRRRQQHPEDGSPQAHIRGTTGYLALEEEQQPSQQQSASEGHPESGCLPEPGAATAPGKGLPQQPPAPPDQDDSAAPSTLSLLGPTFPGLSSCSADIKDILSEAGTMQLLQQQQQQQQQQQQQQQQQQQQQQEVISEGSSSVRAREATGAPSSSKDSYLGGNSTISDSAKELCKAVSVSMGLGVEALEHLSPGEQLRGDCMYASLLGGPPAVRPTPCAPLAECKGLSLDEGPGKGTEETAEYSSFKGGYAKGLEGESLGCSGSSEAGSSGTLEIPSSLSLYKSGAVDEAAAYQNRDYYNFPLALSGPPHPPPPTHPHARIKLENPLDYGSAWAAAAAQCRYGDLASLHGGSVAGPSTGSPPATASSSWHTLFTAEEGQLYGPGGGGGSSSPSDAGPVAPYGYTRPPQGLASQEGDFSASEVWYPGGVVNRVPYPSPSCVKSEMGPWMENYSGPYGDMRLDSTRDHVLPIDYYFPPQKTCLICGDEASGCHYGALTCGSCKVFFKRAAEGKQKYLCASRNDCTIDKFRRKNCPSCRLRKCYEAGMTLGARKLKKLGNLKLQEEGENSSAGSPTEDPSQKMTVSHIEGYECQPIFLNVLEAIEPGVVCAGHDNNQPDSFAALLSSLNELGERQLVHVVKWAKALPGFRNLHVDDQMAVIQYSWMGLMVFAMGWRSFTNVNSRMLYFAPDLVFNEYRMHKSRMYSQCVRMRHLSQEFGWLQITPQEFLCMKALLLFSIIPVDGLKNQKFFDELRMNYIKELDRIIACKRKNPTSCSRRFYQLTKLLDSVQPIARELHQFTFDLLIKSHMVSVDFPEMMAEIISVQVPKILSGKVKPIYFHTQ", "test": "Study of the affinity of the products of the invention for the androgen receptor (displacement of tritiated testosterone, rat prostate cytosol)", "assay_type": "binding, Male Sprague Dawley EOPS rats", "settings": "Incubation: 24 hours, 0° C., RBA=100 (CH)/(CX), testosterone = 100", "protocol": "1) Study of the affinity of the products of the invention for the androgen receptor\nMale Sprague Dawley EOPS rats weighing 180-200 g, castrated 24 hours previously, are sacrificed, the prostates are removed, weighed and homogenized at 0° C. using a Potter glass, in a buffered solution (10 mM Tris, 0.25M saccharose, 0.1 mM PMSF (phenylmethanesulphonylfluoride), 20 mM sodium molybdate, HCl pH 7.4) to which is added extemporaneously 2 mM of DTT (DL dithiothreitol), at the rate of 1 g of tissue per 8 ml of buffer.\nThe homogenate is then ultracentrifuged at 0° C., for 30 minutes at 209,000 g. […] Calculation of the relative bond affinity (RBA).\nThe following 2 curves are drawn: the percentage of the bound tritiated hormone B/T as a function of the logarithm of the concentration of the unlabelled reference hormone and B/T as a function of the logarithm of the concentration of the unlabelled product tested. The straight line of the equation I50 =(B/Tmax+B/Tmin)/2 is determined. B/Tmax=% of the bound tritiated hormone for an incubation of this tritiated hormone at the concentration (T). B/Tmin=% of the bound tritiated hormone for an incubation of this tritiated hormone at the concentration (T) in the presence of a large excess of unlabelled hormone (2500.10^-9 M).\nThe intersections of the straight line I50 and the curves enable the concentrations of the unlabelled reference hormone (CH) and of the unlabelled tested product (CX) which inhibit by 50% the binding of the tritiated hormone on the receptor to be evaluated."}}, "data": [{"smiles": "CC1(CO)C(=O)N(c2ccc(C#N)c(C(F)(F)F)c2)C(=O)N1CCF", "note": "(centres unmarked) [Example 3, 4-(2,5-dioxo 3-(2-fluoroethyl) 4-(hydroxymethyl) 4-methyl 1-imidazolidinyl)2-(trifluoromethyl) benzonitrile]", "values": [{"measurement": "% of inhibition of the ODC of the controls receiving only testosterone propionate", "setting": "[1]", "value": 47, "unit": "%"}, {"measurement": "relative bond affinity (RBA)", "setting": "androgen receptor", "value": 6}]}, {"smiles": "CN1C(=O)N(c2ccc(C#N)c(C(F)(F)F)c2)C(=O)C1(C)CF", "note": "(centres unmarked) [Example 6]", "values": [{"measurement": "% of inhibition of the ODC of the controls receiving only testosterone propionate", "setting": "[1]", "value": 84, "unit": "%"}, {"measurement": "relative bond affinity (RBA)", "setting": "androgen receptor", "value": 16}]}, {"smiles": "N#Cc1ccc(N2C(=O)NC(CO)(CO)C2=O)cc1C(F)(F)F", "note": "[Example 26, 4-(4,4-bis(hydroxymethyl)-2,5-dioxo-1-imidazolidinyl)-2-(trifluoromethyl)-benzonitrile]", "values": [{"measurement": "relative bond affinity (RBA)", "setting": "androgen receptor", "value": 4}]}]}
